# Where a SMILES comes first, the peptide text is derived from it. [ ]: non-standard residue; d: D form. Ala(6-(2-MePh)pyridin-3-yl) = Cc1ccccc1-c1ccc(C[C@H](N)C(=O)O)cn1; Bip(2'-Et-4'-OMe) = CCc1cc(OC)ccc1-c1ccc(C[C@H](N)C(=O)O)cc1; αMePhe(2-F) = C[C@](N)(Cc1ccccc1F)C(=O)O; Aib = CC(C)(N)C(=O)O
# System: C57BL/6J-ob/ob mice
# Assay: Intraperitoneal glucose tolerance test (ipGTT) in ob/ob mice after subcutaneous injection
# Assay type: in vivo, mouse
# Procedure: Peptides were dissolved in an appropriate vehicle at a concentration in nmol/ml equivalent to the dose that was to be administered in nmol/kg so that each mouse would receive the same volume/weight of dosing solution. Male C57BL/6J-ob/ob mice (10 weeks old) were randomized into groups of 6 mice per group based on fed plasma glucose and body weight. After an overnight fast, mice were weighed and placed in the experimental lab. After 30 min in the environment, the mice were bled via tail tip at −30 min and immediately injected subcutaneously (sc) with vehicle or the peptide dissolved in vehicle (0.1 ml solution/100 g body weight). At time 0 the mice were bled and then injected intraperitoneally with 50% glucose (2 g/kg) to initiate the intraperitoneal glucose tolerance test (ipGTT). The mice were bled 30, 60, 120 and 180 min after the glucose injection. Blood samples were drawn into potassium EDTA, placed on ice during the study and subsequently centrifuged for 10 min at 3000 rpm at 4° C. Plasma samples were diluted 1-fold for glucose analysis in the Cobas System. Another 5 μl plasma sample was diluted 5-fold with 20 μl of Sample Diluent (Insulin ELISA assay kit, Crystal Chem Inc.) and stored at −20° C. for subsequent analysis using the Ultra Sensitive Mouse Insulin ELISA kit (Crystal Chem Inc.).
smiles,measurement,setting,value
CCc1cc(OC)ccc1-c1ccc(C[C@H](NC(=O)[C@H](CC(=O)O)NC(=O)[C@H](CO)NC(=O)[C@@H](NC(=O)[C@](C)(Cc2ccccc2F)NC(=O)[C@@H](NC(=O)CNC(=O)[C@H](CCC(=O)O)NC(=O)C(C)(C)NC(=O)[C@@H](N)Cc2c[nH]cn2)[C@@H](C)O)[C@@H](C)O)C(=O)N[C@@H](Cc2ccc(-c3ccccc3C)nc2)C(N)=O)cc1 [SEQ ID NO: 9] (H-H[Aib]EGT[αMePhe(2-F)]TSD[Bip(2'-Et-4'-OMe)][Ala(6-(2-MePh)pyridin-3-yl)]-NH2),Potency in ob/ob mice: % AUC Reduction in Plasma Glucose in an IP Glucose Tolerance Test after SC Injection of Compound,"10 nmol/kg sc, relative to vehicle-treated group",−68% (p < 0.0001)
same,maximum increase in postprandial insulin AUC,"30 nmol/kg sc, ipGTT ob/ob mice",187.7%
same,plasma glucose AUC decrease,"100 nmol/kg sc, ipGTT ob/ob mice",85.8%
same,effect on postprandial plasma glucose,"sc in ob/ob mice, between 0 and 180 or 210 minutes",statistically significant decrease
same,Potency in ob/ob mice ED50,"sc injection, plasma glucose AUC in ipGTT",5 nmol/kg
